Test [1] deals with perceived bitterness intensity of a coffee rated as having a high bitter intensity. Kind of test: Sensory panel evaluation of perceived bitterness intensity of coffee brew. It counts as in vivo, human. The note with it: compound added individually to high-bitter coffee (4-CQA about 177 mg/L, 5-CQA about 181 mg/L, 2-GA about 45 mg/L); eight trained panelists, nose clips, room temperature, duplicate; p<0.05. Here is the method:
4-CQA (4-caffeoylquinic acid) (about 177 mg/L), 5-CQA (5-caffeoylquinic acid) (about 181 mg/L), and 2-GA (2-O-β-D-glucopyranosyl-atractyligenin) (about 45 mg/L) were added individually or as a group to a coffee rated as having a high bitter intensity. Five mL of each sample at room temperature was presented to experienced sensory panelists in 1 oz black cups labeled with 3-digit codes in random order. Eight trained panelists, recruited by Flavor Research and Education Center (FREC) at The Ohio State University, used nose clips during the evaluation in order to prevent interactions with olfactory responses. Between samples, panelists waited a minimum of 90 seconds and were asked to cleanse their palate using crackers and water. All evaluations were conducted in duplicate using Compusense Cloud software (Compusense Inc., Guelph, ON, Canada). […] FIGS. 1 and 2.

For test [2], the system named is taste attributes in isolation. Kind of test: Taste attributes of the compounds in isolation, by consensus of experienced sensory panelists. The test is classed as in vivo, human. The note with it: same concentrations as in coffee, 5 experienced panelists by consensus. On the procedure: The taste attributes 4-CQA, 5-CQA, and 2-GA in isolation were further evaluated by 5 experienced sensory panelists by consensus. Each compound was dissolved in 5 mL nanopure water and 5 mL buffer (0.05 M sodium phosphate butter adjusted to pH 5.77 with 0.1 M citric acid) at the same concentrations described above. […] This led to the confirmation that 4-CQA, 5-CQA, and 2-O-β-D-glucopyranosyl-atractyligenin were bitter modulators that suppressed perception.

The mark [3] stands for this setting: dissolved in 5 mL buffer (0.05 M sodium phosphate adjusted to pH 5.77 with 0.1 M citric acid).
[4] abbreviates: dissolved in 5 mL nanopure water.

As for `O=C(/C=C/c1ccc(O)c(O)c1)O[C@H]1C(O)C[C@](O)(C(=O)O)C[C@H]1O` (stereo partly drawn) [4-CQA, 4-O-caffeoylquinic acid], the “perceived bitterness intensity of the coffee brew” value (“perceived bitterness intensity” for short) in test [1] is reported as “significantly reduce”. Further, the “taste attribute in isolation” value in test [2] (setting [3]) and in test [2] (setting [4]) was “very weak sour taste” each time.
As to `O=C(/C=C/c1ccc(O)c(O)c1)O[C@@H]1C[C@@](O)(C(=O)O)C[C@@H](O)[C@@H]1O` [5-CQA, 5-O-caffeoylquinic acid], the “perceived bitterness intensity” value in test [1] is given as “significantly reduce”. In addition, the “taste attribute in isolation” value in test [2] (setting [3]) and in test [2] (setting [4]) was “very weak sour taste” in each case.
In the case of `C=C1[C@@H]2CCC3[C@@](CC[C@@H]4[C@H](C(=O)O)C[C@@H](O[C@@H]5O[C@H](CO)[C@@H](O)[C@H](O)[C@H]5O)C[C@@]34C)(C2)[C@H]1O` (stereo partly drawn) [2-GA, 2-O-β-D-glucopyranosyl-atractyligenin], in test [1], the “perceived bitterness intensity” value is on record as “significantly reduce”. The “taste attribute in isolation” value in test [2] (setting [3]) and in test [2] (setting [4]) was “no obvious taste character” each time.

The values above are taken from patent US20220395007A1, “TASTE MODULATING COMPOUNDS AND METHODS OF IMPROVING THE QUALITY OF FOODS AND BEVERAGES” (Ohio State Innovation Foundation, priority 2019, published 2022).
